In patent US10870647B2, “Imidazopyridine derivative, method for preparing same, and pharmaceutical composition containing same as active ingredient for preventing or treating cancer” (DAEGU-GYEONGBUK MEDICAL INNOVATION FOUNDATION, priority 2016, dated 2020) one finds remaining binding data, which are given here for 3 compounds.

Holding throughout (assay): Kinase selectivity, scanMAX Kinase assay panel (DiscoverX), % control at 1 uM
Holding throughout (assay type): binding

The target in experiment [1] is T1, scanMAX Kinase assay panel (Homo sapiens, UniProt P53778).
T1 construct: purchased DiscoverX
T1 sequence (P53778 1-367): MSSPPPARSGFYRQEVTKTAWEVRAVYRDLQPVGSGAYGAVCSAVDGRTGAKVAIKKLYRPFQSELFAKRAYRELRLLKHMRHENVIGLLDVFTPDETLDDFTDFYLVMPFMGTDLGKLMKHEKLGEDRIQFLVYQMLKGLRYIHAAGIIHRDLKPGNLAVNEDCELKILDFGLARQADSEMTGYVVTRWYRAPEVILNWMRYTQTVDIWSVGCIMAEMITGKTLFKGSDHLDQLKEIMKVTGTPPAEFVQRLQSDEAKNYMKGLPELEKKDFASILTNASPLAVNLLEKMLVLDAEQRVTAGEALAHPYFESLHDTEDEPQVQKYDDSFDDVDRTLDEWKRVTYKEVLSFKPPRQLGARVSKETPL
The note with it: p38-gamma; 1 uM; read-out: Percent Control (%). The gist of the method: (§1)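 1 uM cpd (DMSO) per kinase; % ctrl = [cpd − pos ctrl]/[neg ctrl − pos ctrl] × 100; hit if <35.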

Experiment [2] concerns the target T2, scanMAX Kinase assay panel (Homo sapiens, UniProt P36888, D835H).
T2 construct: purchased DiscoverX
T2 sequence (P36888 27-993 D835H): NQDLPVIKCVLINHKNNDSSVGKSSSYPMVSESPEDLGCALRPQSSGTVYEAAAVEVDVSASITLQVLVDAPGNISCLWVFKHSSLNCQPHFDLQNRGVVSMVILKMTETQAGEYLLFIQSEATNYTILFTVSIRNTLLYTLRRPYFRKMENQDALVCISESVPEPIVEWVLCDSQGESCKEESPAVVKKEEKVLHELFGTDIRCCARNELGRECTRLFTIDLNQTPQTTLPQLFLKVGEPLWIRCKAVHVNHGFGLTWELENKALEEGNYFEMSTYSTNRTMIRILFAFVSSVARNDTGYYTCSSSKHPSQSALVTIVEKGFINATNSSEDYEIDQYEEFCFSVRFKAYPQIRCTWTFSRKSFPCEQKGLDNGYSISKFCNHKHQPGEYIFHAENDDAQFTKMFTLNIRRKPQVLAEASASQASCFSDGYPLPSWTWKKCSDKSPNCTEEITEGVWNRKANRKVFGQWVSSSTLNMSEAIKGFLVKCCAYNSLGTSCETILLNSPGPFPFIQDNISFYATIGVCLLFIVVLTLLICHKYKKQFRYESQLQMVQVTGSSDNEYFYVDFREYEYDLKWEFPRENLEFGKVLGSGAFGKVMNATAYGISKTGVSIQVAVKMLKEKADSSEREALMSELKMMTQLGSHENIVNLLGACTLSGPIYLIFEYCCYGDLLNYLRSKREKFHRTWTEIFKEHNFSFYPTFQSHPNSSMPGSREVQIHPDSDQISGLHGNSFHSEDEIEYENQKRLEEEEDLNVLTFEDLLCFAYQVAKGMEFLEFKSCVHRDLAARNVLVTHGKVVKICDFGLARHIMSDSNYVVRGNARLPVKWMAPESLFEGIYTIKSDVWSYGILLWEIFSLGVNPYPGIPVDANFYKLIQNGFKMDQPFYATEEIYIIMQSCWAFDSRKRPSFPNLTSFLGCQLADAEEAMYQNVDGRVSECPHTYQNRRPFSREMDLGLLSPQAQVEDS
The note with it: FLT3 (D835H); 1 uM; read-out: Percent Control (%). The gist of the method:
as §1

Experiment [3] concerns the target T3, scanMAX Kinase assay panel (Homo sapiens, UniProt P19784).
T3 construct: purchased DiscoverX
The conditions noted are these: CSNK2A2; 1 uM; read-out: Percent Control (%). The gist of the method: as §1

The target of experiment [4] is T4, scanMAX Kinase assay panel (Homo sapiens, UniProt Q9P0L2).
T4 construct: purchased DiscoverX
T4 sequence (Q9P0L2 whole entry): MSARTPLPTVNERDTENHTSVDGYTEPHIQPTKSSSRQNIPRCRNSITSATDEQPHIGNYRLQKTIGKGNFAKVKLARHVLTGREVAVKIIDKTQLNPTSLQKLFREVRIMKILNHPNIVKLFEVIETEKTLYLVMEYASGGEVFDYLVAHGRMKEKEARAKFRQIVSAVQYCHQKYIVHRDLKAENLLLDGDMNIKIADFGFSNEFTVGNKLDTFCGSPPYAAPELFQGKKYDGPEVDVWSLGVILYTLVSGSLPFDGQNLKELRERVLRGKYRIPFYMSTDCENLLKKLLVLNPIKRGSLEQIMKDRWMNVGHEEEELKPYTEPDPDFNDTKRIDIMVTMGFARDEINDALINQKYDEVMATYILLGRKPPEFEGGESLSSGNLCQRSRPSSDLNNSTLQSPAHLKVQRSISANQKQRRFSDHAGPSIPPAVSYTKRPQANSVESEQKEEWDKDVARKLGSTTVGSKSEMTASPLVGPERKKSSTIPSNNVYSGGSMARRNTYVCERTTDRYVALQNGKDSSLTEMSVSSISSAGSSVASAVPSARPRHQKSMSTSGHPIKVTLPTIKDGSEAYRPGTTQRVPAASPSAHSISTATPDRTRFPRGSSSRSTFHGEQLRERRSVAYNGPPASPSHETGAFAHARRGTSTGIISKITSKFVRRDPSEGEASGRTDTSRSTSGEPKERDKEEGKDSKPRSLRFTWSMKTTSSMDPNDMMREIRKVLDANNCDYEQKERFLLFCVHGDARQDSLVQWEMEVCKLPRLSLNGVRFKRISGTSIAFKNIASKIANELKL
The conditions noted are these: MARK1; 1 uM; read-out: Percent Control (%). The method, boiled down:
as §1

Experiment [5] addresses T5, scanMAX Kinase assay panel (Homo sapiens, UniProt O14936).
T5 construct: purchased DiscoverX
T5 sequence (O14936 1-926): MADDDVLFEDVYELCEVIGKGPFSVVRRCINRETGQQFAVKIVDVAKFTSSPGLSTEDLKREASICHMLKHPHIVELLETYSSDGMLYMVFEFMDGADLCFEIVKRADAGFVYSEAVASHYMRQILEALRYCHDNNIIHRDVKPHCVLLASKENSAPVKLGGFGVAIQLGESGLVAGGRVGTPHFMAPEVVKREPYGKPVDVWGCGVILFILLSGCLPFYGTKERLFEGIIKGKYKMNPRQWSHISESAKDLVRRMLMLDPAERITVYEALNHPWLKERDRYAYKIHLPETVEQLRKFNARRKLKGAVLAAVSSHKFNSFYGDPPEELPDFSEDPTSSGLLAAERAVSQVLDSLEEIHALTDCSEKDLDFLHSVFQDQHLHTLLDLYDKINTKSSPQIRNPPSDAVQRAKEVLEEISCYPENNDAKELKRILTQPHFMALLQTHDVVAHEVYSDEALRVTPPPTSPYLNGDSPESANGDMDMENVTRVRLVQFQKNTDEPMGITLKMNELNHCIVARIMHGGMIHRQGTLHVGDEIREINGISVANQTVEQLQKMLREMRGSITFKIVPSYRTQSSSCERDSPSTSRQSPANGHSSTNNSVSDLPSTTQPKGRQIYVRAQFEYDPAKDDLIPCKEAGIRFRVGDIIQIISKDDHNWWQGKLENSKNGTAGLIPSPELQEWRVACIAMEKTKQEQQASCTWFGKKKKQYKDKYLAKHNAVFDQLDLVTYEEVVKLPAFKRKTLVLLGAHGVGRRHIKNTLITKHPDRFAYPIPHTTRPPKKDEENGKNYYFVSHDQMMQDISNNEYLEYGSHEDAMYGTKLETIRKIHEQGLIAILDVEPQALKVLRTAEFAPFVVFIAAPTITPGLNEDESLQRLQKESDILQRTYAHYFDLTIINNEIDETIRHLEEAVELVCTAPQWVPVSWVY
The note with it: CASK; 1 uM; read-out: Percent Control (%). The method, boiled down: as §1

Experiment [6] deals with T6, scanMAX Kinase assay panel (Homo sapiens, UniProt P00533, DEL746-750).
T6 construct: purchased DiscoverX
T6 sequence (P00533 with tags, fused parts or gaps DEL746-750): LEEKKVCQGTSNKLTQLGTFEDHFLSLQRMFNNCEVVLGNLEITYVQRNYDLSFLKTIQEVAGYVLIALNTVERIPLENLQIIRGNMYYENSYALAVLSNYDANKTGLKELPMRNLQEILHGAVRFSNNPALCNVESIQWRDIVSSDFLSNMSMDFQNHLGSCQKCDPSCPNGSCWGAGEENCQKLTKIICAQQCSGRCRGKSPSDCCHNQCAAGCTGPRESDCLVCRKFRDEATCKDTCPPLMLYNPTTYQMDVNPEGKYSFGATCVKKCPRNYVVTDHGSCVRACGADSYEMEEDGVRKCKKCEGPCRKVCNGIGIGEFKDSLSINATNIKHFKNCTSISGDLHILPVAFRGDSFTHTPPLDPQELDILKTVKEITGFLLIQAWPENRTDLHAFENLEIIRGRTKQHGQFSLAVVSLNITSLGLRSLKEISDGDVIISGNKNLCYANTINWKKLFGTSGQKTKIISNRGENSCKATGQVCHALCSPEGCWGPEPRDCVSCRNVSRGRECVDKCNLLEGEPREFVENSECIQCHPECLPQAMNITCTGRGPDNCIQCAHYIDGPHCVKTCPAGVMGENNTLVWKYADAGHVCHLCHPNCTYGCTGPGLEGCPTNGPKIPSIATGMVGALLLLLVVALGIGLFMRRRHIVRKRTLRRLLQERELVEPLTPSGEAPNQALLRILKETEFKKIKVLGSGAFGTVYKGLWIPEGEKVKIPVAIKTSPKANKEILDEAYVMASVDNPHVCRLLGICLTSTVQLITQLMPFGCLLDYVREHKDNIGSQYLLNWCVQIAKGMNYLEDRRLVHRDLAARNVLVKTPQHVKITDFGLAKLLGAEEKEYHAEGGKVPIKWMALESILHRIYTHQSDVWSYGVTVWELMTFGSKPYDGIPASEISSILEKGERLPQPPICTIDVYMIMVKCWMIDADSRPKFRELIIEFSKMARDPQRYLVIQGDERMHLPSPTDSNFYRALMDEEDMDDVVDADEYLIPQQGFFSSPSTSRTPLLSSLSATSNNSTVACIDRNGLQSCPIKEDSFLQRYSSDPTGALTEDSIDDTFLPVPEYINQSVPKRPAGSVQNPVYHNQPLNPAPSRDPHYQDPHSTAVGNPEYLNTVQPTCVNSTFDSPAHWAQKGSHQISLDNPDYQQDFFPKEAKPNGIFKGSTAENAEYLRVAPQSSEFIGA
The conditions noted are these: EGFR (E746-A750del); 1 uM; read-out: Percent Control (%). The gist of the method:
as §1

In experiment [7] the target is T7, scanMAX Kinase assay panel (Homo sapiens, UniProt Q8N4C8).
T7 construct: purchased DiscoverX
T7 sequence (Q8N4C8 whole entry): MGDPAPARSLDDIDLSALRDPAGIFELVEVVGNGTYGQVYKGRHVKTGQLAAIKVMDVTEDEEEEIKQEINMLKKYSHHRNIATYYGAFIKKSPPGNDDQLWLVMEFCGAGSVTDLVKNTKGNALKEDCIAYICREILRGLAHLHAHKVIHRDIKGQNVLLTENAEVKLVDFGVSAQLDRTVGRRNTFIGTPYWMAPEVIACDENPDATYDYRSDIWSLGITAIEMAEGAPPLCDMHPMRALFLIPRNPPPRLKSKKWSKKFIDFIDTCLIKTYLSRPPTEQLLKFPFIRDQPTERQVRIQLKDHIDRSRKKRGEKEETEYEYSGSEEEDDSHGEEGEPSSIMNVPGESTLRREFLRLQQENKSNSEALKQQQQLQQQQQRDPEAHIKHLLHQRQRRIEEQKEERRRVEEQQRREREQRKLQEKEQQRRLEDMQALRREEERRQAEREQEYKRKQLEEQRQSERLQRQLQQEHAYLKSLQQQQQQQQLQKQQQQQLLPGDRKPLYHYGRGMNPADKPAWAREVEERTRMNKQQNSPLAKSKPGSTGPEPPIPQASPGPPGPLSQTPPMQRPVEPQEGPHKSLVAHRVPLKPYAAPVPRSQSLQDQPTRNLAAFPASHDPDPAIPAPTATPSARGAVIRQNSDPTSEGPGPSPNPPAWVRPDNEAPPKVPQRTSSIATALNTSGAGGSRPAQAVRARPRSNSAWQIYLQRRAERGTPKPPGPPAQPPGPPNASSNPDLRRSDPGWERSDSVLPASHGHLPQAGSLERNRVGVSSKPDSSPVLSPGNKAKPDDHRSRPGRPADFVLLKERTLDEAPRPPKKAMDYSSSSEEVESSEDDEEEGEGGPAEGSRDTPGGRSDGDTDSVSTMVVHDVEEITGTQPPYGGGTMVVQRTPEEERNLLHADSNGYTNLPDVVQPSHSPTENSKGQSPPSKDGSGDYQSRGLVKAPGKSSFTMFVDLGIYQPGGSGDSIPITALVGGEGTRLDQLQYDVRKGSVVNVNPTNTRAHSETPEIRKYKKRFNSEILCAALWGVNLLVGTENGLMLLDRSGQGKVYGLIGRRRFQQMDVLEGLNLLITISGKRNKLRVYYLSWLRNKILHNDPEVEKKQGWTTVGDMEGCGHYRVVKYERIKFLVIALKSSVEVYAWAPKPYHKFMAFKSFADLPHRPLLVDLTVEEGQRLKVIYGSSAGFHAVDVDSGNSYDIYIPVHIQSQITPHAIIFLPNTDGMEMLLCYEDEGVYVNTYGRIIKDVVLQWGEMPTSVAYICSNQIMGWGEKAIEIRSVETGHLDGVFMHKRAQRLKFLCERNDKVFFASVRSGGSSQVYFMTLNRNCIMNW
The conditions noted are these: MINK; 1 uM; read-out: Percent Control (%). The method, boiled down:
as §1

T3 sequence (P19784 whole entry): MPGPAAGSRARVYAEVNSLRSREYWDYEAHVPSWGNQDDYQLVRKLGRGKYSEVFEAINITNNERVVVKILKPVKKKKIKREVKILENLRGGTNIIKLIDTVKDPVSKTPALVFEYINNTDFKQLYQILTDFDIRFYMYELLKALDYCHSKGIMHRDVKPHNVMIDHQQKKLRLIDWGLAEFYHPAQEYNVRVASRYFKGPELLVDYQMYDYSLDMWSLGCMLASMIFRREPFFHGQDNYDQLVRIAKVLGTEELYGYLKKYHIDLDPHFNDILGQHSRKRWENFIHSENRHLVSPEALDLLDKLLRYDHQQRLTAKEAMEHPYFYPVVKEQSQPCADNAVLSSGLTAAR

On to `Cc1ccc(C(=O)Nc2ccc(CN3CCN(C)CC3)c(C(F)(F)F)c2)cc1C#Cc1cnc2c(Nc3cnn(C)c3)cccn12` [Example 1, 4-methyl-3-((8-((1-methyl-1H-pyrazol-4-yl)amino)imidazo[1,2-a]pyridin-3-yl)ethynyl)-N-(4-((4-methylpiperazin-1-yl)methyl)-3-(trifluoromethyl)phenyl)benzamide], for which the remaining binding at 1 µM in experiment [1] was 18%; in experiment [2], 1%; in experiment [3], 56%; in experiment [4] it was 78%; in experiment [5], 74%; in experiment [6] it was 0%. Moreover, the remaining binding at 1 µM in experiment [7] stood at 2%.
Regarding `Cc1cn(-c2cc(NC(=O)c3ccc(C)c(C#Cc4cnc5c(Nc6cnn(C)c6)cccn45)c3)cc(C(F)(F)F)c2)cn1` [Example 12, 4-methyl-N-(3-(4-methyl-1H-imidazol-1-yl)-5-(trifluoromethyl)phenyl)-3-((8-((1-methyl-1H-pyrazol-4-yl)amino)imidazo[1,2-a]pyridin-3-yl)ethynyl)benzamide], the remaining binding at 1 µM in experiment [1] is 55%; in experiment [2], 10%; in experiment [3] it was 98%; in experiment [4], 95%; in experiment [5] it was 90%; in experiment [6] it was 8%. Besides, the remaining binding at 1 µM in experiment [7] stood at 44%.
Take `Cc1ccc(NC(=O)C2(C(=O)Nc3ccc(F)cc3)CC2)cc1C#Cc1cnc2c(Nc3cnn(C(C)C)c3)cccn12` [Example 78]: the remaining binding at 1 µM was 100% in experiment [1]; 95% in experiment [2]; 100% in experiment [3]; 100% in experiment [4]; 100% in experiment [5]; 93% in experiment [6]. Moreover, in experiment [7], the remaining binding at 1 µM came to 87%.
